# Experiments:
# [1] = test system: ventricular arrhythmias induced by left coronary ligation in the rat; test: Experimental myocardial anoxia test: ventricular arrhythmias induced by left coronary ligation; format: in vivo; settings: for N. of ectopic contractions during 30 minutes after ligation / Start of arrhythmias after: rat, left coronary ligation, slow injection into left ventricle 15 minutes before ligation (100 mg/kg each agent; carnitine combination 25 mg/kg per component); for Reduction in number of ectopic contractions compared to controls (in words): summary of Table 2
# Description: Experimental Myocardial Anoxia Test
# Adopting the technique described by Selych (Selych et al., Angiology, 11, 398, 1960) and modified by Clark (Clark C., J. Pharmacol. Methods, 3, 357, 1980), these tests were used to evaluate the protective activity of isovaleryl L-carnitine, propionyl L-carnitine, carnitine combination, ribose and various combinations of the same against ventricular arrhythmias induced by left coronary ligation in the rat.
# Coronary occlusion and the resulting myocardial anoxia lead, after 5-8 minutes, to the onset of arrhythmias. In these tests, ventricular ectopic contractions were counted for a period of 30 minutes after ligation both in control rats and in rats that had received slow injections into the left ventricle, 15 minutes before ligation, of a solution containing isovaleryl L-carnitine alone (100 mg/kg), propionyl L-carnitine alone (100 mg/kg), or carnitine combination alone consisting of propionyl L-carnitne (25 mg/kg), acetyl L-carnitine (25 mg/kg) and isovaleryl L-carnitine (25 mg/kg) or ribose alone (100 mg/kg), or a combination of ribose plus isovaleryl L-carnitine or propionyl L-carnitine or a combination of ribose plus carnitine combination at the doses described above.
# [2] = test system: papillary muscle of rabbit heart; test: Test of ATP concentrations in papillary muscle of heart subjected to anoxia; format: in vivo, New Zealand rabbits; settings: summary of Table 1
# Description: Test of ATP Concentrations in Heart Subjected to Anoxia In this test the technique adopted was the one using papillary muscle of rabbit heart perfused and subjected to anoxia which, as is known, leads to an impoverishment of its ATP energy reserves. […] At the end of the third day of treatment, all the animals were sacrificed and their hearts excised. Sections of papillary muscle measuring 1 mm in diameter and 4-5 mm in thickness were isolated from the excised hearts. The isolated papillary muscle was perfused in a thermostatic bath with a saturated 100% O2 solution. The anoxic state was obtained by introducing 100% N2 instead of O2 into the bath. For the measurement of the ATP concentrations in the […] muscle the method described by […] was adopted ([…]. Methods in Enzymology 111 N.Y. Acad. Press., 879, 1957).
SMILES,N. of ectopic contractions during 30 minutes after ligation [1],Start of arrhythmias after [1],Reduction in number of ectopic contractions compared to controls (in words) [1],Protection of ATP in papillary muscle against anoxia (in words) [2]
CC(C)CC(=O)O[C@H](CC(=O)[O-])C[N+](C)(C)C [Isovaleryl L-carnitine],860 ± 75,5 to 7 min,only slight reductions,partly protecting
CCC(=O)O[C@H](CC(=O)[O-])C[N+](C)(C)C [Propionyl L-carnitine],830 ± 86,5 to 8 min,only slight reductions,partly protecting
O=C[C@H](O)[C@H](O)[C@H](O)CO [Ribose],855 ± 110,5 to 7 min,only slight reductions,partly protecting

# Source: patent US20070116743A1, “Dietary supplement enhancing the muscular energy metabolism, comprising an alkanoyl carnitine and ribose” (Sigma-Tau Industrie Farmaceutiche Riunite S.p.A., priority 2000, published 2007)
